What was measured:
Experiment in all cases: Caliper, Mobility shift assay off-chip
EPHA1 (human) = EPHA1 (human) (UniProt P21709)
IKBKE (human) = IKBKE (human) (UniProt Q14164)
RPS6KA1 KD1 KD2 (human) = RPS6KA1 KD1 KD2 (human) (UniProt Q15418)
ABL2 (human) = ABL2 (human) (UniProt P42684)
KIT (human) = KIT (human) (UniProt P10721)
PRKD2 (human) = PRKD2 (human) (UniProt Q9BZL6)
CDC7 (human) = CDC7 (human) (UniProt O00311)
TNIK (human) = TNIK (human) (UniProt Q9UKE5)
TNK2 (human) = TNK2 (human) (UniProt Q07912)
HIPK3 (human) = HIPK3 (human) (UniProt Q9H422)
CDK7 (human) = CDK7 (human) (UniProt P50613)
CSK (human) = CSK (human) (UniProt P41240)
ALK NPM1 (human) = ALK NPM1 (human) (UniProt P06748+Q9UM73)
NIM1 (human) = NIM1 (human) (UniProt Q8IY84)
FGFR2 (human) = FGFR2 (human) (UniProt P21802)
CDK6 (human) = CDK6 (human) (UniProt Q00534)
FGR (human) = FGR (human) (UniProt P09769)
HCK (human) = HCK (human) (UniProt P08631); settings: compound 0.02 µM
PHKG2 (human) = PHKG2 (human) (UniProt P15735)
RPS6KA2 KD1 KD2 (human) = RPS6KA2 KD1 KD2 (human) (UniProt Q15349)
TSSK2 (human) = TSSK2 (human) (UniProt Q96PF2)
AKT1 (human) = AKT1 (human) (UniProt P31749)
PRKCI (human) = PRKCI (human) (UniProt P41743)
SPHK2 (human) = SPHK2 (human) (UniProt Q9NRA0)
CSNK2A1 (human) = CSNK2A1 (human) (UniProt P68400)
CDK1 (human) = CDK1 (human) (UniProt P06493)
JAK2 JH1 JH2 (human) = JAK2 JH1 JH2 (human) (UniProt O60674)
SPHK1 (human) = SPHK1 (human) (UniProt Q9NYA1)
MAPK12 (human) = MAPK12 (human) (UniProt P53778)
DYRK1B (human) = DYRK1B (human) (UniProt Q9Y463)
PTK2B (human) = PTK2B (human) (UniProt Q14289)

Chain of PRKD2 (human) (Q9BZL6 whole entry, looked up): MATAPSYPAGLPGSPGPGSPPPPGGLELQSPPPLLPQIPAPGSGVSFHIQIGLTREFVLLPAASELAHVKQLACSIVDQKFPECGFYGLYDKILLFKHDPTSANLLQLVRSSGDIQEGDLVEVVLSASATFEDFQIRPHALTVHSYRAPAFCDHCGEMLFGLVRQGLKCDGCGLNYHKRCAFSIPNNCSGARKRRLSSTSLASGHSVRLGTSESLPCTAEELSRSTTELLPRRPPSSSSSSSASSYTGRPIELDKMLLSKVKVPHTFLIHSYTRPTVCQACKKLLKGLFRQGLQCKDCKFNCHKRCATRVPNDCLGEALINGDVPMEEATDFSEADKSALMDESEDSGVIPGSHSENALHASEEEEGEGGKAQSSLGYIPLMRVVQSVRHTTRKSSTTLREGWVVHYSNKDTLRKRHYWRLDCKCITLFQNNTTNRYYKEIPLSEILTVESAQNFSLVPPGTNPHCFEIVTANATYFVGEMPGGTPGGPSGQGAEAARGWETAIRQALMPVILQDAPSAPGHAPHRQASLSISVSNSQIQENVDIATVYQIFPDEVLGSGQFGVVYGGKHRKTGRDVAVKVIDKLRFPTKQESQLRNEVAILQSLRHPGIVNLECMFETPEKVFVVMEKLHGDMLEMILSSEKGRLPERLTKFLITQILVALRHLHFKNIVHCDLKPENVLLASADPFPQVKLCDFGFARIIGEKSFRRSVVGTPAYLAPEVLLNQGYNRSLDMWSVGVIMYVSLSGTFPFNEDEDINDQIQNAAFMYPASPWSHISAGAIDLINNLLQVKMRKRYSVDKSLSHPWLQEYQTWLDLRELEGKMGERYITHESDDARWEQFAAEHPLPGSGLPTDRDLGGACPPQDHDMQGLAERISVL
Chain of NIM1 (human) (Q8IY84 whole entry, looked up): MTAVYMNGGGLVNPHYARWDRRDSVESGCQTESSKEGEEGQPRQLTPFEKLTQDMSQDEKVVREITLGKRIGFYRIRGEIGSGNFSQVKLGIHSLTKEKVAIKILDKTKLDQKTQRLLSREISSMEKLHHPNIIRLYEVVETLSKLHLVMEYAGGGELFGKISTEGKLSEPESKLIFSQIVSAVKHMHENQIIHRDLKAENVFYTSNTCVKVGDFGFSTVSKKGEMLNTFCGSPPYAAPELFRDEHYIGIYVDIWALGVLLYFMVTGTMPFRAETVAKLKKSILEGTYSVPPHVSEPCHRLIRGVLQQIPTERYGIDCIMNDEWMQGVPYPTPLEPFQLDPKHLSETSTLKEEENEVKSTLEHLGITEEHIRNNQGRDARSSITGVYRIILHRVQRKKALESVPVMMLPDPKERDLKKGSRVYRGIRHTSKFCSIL
Chain of TNK2 (human) (Q07912 whole entry, looked up): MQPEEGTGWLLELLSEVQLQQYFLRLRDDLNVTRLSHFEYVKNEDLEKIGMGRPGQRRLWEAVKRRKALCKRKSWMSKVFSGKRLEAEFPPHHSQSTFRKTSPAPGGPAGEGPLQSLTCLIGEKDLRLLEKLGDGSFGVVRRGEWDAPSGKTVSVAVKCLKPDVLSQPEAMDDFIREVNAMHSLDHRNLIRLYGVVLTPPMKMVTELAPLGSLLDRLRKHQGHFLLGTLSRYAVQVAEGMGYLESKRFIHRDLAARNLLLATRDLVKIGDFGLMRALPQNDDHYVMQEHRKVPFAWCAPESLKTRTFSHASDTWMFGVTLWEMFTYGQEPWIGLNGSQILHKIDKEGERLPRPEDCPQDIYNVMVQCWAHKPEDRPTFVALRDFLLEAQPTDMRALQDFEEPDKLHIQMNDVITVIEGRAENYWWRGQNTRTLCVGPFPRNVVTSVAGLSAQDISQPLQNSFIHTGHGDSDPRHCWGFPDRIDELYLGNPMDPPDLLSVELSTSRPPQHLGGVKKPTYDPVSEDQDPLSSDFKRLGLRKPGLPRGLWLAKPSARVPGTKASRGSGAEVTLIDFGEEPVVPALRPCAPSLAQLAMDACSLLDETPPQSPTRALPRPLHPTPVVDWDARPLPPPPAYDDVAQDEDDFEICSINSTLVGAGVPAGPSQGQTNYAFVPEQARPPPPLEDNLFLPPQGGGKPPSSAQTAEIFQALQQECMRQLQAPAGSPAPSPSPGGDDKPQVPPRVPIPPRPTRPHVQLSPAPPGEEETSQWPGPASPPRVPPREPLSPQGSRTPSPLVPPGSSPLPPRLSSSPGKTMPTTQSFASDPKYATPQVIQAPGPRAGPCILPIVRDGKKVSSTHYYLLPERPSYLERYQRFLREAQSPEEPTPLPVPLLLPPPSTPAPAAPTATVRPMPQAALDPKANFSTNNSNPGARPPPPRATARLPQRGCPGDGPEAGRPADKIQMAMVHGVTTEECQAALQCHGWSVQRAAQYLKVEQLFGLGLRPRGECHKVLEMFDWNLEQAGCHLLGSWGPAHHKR
Chain of TNIK (human) (Q9UKE5 whole entry, looked up): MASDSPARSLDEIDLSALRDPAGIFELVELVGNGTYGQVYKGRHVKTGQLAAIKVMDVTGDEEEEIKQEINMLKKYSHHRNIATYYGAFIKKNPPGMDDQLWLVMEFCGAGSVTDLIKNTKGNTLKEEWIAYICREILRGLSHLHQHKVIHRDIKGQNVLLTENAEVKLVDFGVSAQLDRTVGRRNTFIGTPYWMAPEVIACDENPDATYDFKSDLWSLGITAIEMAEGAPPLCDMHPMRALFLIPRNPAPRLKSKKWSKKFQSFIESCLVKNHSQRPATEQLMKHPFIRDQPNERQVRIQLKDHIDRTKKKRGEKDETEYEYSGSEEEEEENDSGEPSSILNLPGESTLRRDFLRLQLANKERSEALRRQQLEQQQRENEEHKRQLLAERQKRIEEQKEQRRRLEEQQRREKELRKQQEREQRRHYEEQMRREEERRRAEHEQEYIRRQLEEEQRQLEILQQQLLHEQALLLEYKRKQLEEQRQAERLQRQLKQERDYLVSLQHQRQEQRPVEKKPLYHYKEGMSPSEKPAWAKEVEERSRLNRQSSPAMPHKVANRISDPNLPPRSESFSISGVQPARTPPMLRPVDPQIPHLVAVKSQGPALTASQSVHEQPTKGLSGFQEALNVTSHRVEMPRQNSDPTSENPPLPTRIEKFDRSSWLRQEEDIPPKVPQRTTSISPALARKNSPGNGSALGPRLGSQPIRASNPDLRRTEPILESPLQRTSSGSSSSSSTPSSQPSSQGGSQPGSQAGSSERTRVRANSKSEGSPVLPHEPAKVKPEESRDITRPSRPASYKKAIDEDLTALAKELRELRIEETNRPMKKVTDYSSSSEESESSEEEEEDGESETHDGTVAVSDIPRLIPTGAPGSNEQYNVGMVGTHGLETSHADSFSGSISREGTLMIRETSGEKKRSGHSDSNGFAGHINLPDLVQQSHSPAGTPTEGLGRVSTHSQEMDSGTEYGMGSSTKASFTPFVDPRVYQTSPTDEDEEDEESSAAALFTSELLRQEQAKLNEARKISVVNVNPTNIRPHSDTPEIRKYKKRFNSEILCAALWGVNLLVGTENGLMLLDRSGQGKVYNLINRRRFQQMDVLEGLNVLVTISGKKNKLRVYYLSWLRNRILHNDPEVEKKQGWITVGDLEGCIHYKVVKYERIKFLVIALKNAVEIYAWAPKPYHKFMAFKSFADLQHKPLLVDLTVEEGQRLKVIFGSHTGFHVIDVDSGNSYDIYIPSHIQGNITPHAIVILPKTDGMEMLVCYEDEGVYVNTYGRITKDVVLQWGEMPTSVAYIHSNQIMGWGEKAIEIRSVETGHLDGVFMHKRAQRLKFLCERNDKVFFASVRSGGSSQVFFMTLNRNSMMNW
Chain of MAPK12 (human) (P53778 whole entry, looked up): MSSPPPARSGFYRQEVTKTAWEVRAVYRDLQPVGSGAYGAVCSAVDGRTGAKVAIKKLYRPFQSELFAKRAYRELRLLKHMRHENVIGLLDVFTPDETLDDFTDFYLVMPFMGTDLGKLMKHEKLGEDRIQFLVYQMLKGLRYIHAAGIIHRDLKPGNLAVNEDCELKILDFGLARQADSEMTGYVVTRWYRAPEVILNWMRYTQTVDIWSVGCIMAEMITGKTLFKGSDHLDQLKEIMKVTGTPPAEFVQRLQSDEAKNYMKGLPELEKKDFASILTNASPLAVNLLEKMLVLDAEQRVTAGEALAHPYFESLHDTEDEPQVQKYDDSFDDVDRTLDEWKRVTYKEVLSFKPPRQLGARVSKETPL
Chain of PRKCI (human) (P41743 whole entry, looked up): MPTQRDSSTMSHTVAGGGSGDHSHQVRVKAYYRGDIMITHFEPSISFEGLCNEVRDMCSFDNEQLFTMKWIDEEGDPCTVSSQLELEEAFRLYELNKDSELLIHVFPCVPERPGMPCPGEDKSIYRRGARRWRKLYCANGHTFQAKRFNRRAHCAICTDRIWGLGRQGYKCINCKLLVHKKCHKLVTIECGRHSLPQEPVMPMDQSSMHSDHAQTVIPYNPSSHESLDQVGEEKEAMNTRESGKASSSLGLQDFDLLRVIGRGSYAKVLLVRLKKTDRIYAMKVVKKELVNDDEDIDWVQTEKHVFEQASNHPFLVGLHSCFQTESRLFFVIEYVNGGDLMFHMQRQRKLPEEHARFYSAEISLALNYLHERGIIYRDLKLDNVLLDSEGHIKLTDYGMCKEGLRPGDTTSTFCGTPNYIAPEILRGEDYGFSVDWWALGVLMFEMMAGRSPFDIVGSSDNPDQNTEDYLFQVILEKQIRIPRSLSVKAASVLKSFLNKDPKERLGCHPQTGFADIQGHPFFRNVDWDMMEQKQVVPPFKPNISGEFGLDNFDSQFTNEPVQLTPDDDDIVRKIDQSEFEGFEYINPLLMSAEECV
Chain of CDK1 (human) (P06493 whole entry, looked up): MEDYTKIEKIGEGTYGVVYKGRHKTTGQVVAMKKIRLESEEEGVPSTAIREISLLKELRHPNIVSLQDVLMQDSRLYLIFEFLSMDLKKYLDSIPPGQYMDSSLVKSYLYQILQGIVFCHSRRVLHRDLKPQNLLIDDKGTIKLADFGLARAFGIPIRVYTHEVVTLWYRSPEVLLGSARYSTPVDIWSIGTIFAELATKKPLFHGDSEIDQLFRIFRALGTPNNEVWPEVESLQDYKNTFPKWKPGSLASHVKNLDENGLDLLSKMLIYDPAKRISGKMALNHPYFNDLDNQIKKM

CNC(=O)c1ccccc1Sc1ccc2c(/C=C/c3ccccn3)n[nH]c2c1
inhibition (EPHA1 (human); compound 0.001 µM): -5.6% | inhibition (EPHA1 (human); compound 0.02 µM): -4.2% | inhibition (IKBKE (human); compound 0.001 µM): -6.5% | inhibition (IKBKE (human); compound 0.02 µM): -5.1% | inhibition (RPS6KA1 KD1 KD2 (human); compound 0.001 µM): -5.4% | inhibition (RPS6KA1 KD1 KD2 (human); compound 0.02 µM): -2.8% | inhibition (ABL2 (human); compound 0.001 µM): 5.8% | inhibition (ABL2 (human); compound 0.02 µM): 58.4% | inhibition (KIT (human); compound 0.001 µM): 37.8% | inhibition (KIT (human); compound 0.02 µM): 70.5% | inhibition (PRKD2 (human); compound 0.001 µM): -4.8% | inhibition (PRKD2 (human); compound 0.02 µM): -2.1% | inhibition (CDC7 (human); compound 0.001 µM): -4.9% | inhibition (CDC7 (human); compound 0.02 µM): -5.8% | inhibition (TNIK (human); compound 0.001 µM): -6% | inhibition (TNIK (human); compound 0.02 µM): 1.4% | inhibition (TNK2 (human); compound 0.001 µM): -7.8% | inhibition (TNK2 (human); compound 0.02 µM): -8.8% | inhibition (HIPK3 (human); compound 0.001 µM): -5.2% | inhibition (HIPK3 (human); compound 0.02 µM): -1.1% | inhibition (CDK7 (human); compound 0.001 µM): -7.5% | inhibition (CDK7 (human); compound 0.02 µM): -3.4% | inhibition (CSK (human); compound 0.001 µM): -4.6% | inhibition (CSK (human); compound 0.02 µM): -6.7% | inhibition (ALK NPM1 (human); compound 0.001 µM): 1.1% | inhibition (ALK NPM1 (human); compound 0.02 µM): -0.3% | inhibition (NIM1 (human); compound 0.001 µM): 13.8% | inhibition (NIM1 (human); compound 0.02 µM): -10.4% | inhibition (FGFR2 (human); compound 0.001 µM): 10.6% | inhibition (FGFR2 (human); compound 0.02 µM): 54.1% | inhibition (CDK6 (human); compound 0.001 µM): 3.5% | inhibition (CDK6 (human); compound 0.02 µM): 4.4% | inhibition (FGR (human); compound 0.001 µM): 8.2% | inhibition (FGR (human); compound 0.02 µM): 25% | inhibition (HCK (human)): -7.8% | inhibition (PHKG2 (human); compound 0.001 µM): -6.2% | inhibition (PHKG2 (human); compound 0.02 µM): -3.3% | inhibition (RPS6KA2 KD1 KD2 (human); compound 0.001 µM): -0.7% | inhibition (RPS6KA2 KD1 KD2 (human); compound 0.02 µM): 6% | inhibition (TSSK2 (human); compound 0.001 µM): -5.1% | inhibition (TSSK2 (human); compound 0.02 µM): -5.4% | inhibition (AKT1 (human); compound 0.001 µM): -4.4% | inhibition (AKT1 (human); compound 0.02 µM): -4.8% | inhibition (PRKCI (human); compound 0.001 µM): 3% | inhibition (PRKCI (human); compound 0.02 µM): 3.9% | inhibition (SPHK2 (human); compound 0.001 µM): 2.8% | inhibition (SPHK2 (human); compound 0.02 µM): -4.8% | inhibition (CSNK2A1 (human); compound 0.001 µM): -3.2% | inhibition (CSNK2A1 (human); compound 0.02 µM): -4.4% | inhibition (CDK1 (human); compound 0.001 µM): -3.7% | inhibition (CDK1 (human); compound 0.02 µM): -3.5% | inhibition (JAK2 JH1 JH2 (human); compound 0.001 µM): 2.5% | inhibition (JAK2 JH1 JH2 (human); compound 0.02 µM): 4.7% | inhibition (SPHK1 (human); compound 0.001 µM): -4.8% | inhibition (SPHK1 (human); compound 0.02 µM): -4.1% | inhibition (MAPK12 (human); compound 0.001 µM): -3.7% | inhibition (MAPK12 (human); compound 0.02 µM): -4.6% | inhibition (DYRK1B (human); compound 0.001 µM): 3.6% | inhibition (DYRK1B (human); compound 0.02 µM): -0.4% | inhibition (PTK2B (human); compound 0.001 µM): -4.6% | inhibition (PTK2B (human); compound 0.02 µM): -1.4%

— the kinase profiling compilation of Christmann-Franck et al. (2016)
